Structures can show the parent of a compound that is named as a salt.
Tests used:
[1] = Water uptake / hygroscopicity by dynamic vapor sorption; type: physicochemical; conditions: for hygroscopic nature: dynamic vapor sorption; for water uptake (dynamic vapor sorption): up to 95% rel. humidity, citrate: most uptake above 80% relative humidity
Text: The hygroscopic nature of the citrate salt was investigated by dynamic vapor sorption.

[2] = Polymorphic stability: suspension equilibration in water, PXRD; type: physicochemical; conditions: 25° C., 600 rpm, two days
[3] = Polymorphic stability: stirring in acetonitrile or organic solvent mixture, PXRD; conditions: for polymorph conversion in acetonitrile (PXRD): suspension in acetonitrile, room temperature, five days; for polymorph conversion in acetonitrile-acetone 1:1 (PXRD): suspension stirred at room/ambient temperature, four days
Description: The stability test is carried out by stirring the sample salt at 600 rpm in an amount of approximately 0.1 g/ml acetonitrile and optionally water as defined above. After 96 hours of stirring, the salt is removed by filtration and is dried and then subjected to X-ray powder diffraction analysis.

[4] = Solubility of Asenapine maleate in saturated solution (literature, Funke et al.); type: physicochemical; conditions: saturated aqueous solution, water, thermodynamic from solid; maleate solubility at 23° C., pH=4.4, translated into free base
Text: Certain crystalline addition salts of Asenapine, for instance a fumarate (EP 0569096), salts with sulfonic acids (WO98/54186), and a pamoate or hemipamoate salt (EP569096), are described in the literature. The pamoate salt is disclosed to be amorphous and the hemipamoate salt is a mixture of amorphous and crystalline phase, wherein the palmitate is described as oil. The marketed form is the maleate salt, which is disclosed to exist in polymorphic forms (WO 2006/106135). The known Asenapine salts have a low solubility in water.

[5] = 23° C., pH=4.4; cited from earlier work
[6] = listed as Asenapine citrate of the invention

hygroscopic nature [1]	water uptake (dynamic vapor sorption) [1]	polymorph conversion in water suspension (PXRD) [2]	polymorph conversion in water suspension (PXRD) [2, 6]	polymorph conversion in acetonitrile (PXRD) [3]	polymorph conversion in acetonitrile (PXRD) [3, 6]	polymorph conversion in water suspension (PXRD) ([2]; listed as crystalline malonate of the invention)	polymorph conversion in acetonitrile-acetone 1:1 (PXRD) [3]	polymorph conversion in acetonitrile-acetone 1:1 (PXRD) ([3]; listed as crystalline Asenapine malonate of the invention)	solubility [4] [µg/mL]	Structure (SMILES)	concentration of saturated solution [5] [µg/mL]
not or only very slightly hygroscopic	about 1.5%	no phase transformation was observed	does not change its polymorphic form	no phase transformation was observed	does not change its polymorphic form	–	–	–	–	CN1C[C@H]2c3ccccc3Oc3ccc(Cl)cc3[C@@H]2C1.O=C(O)CC(O)(CC(=O)O)C(=O)O [crystalline Asenapine citrate form I]	–
completely non-hygroscopic	less than 0.2%	no phase transformation was observed	–	–	–	no polymorph conversion was observed	no phase transformation was observed	No polymorph conversion	–	CN1CC2c3ccccc3Oc3ccc(Cl)cc3C2C1.O=C(O)CC(=O)O (centres unmarked) [crystalline Asenapine malonate form I]	–
–	–	–	–	–	–	–	–	–	~4100	CN1CC2c3ccccc3Oc3ccc(Cl)cc3C2C1 (centres unmarked) [maleate salt of Asenapine]	5800

Reference: patent US9169262B2, “Crystalline salts of Asenapine with organic di-acids and tri-acids” (SANDOZ AG, priority 2011, dated 2015)
